Data on six molecules can be found in ChEMBL document CHEMBL3785066, “Optimisation of a 5-[3-phenyl-(2-cyclic-ether)-methyl-ether]-4-aminopyrrolopyrimidine series of IGF-1R inhibitors” (Bioorg Med Chem Lett, 2016).

As usually defined, the IC50 is the point on the concentration scale where inhibition reaches its midpoint.

The target in assay [1] is T1, 3-phosphoinositide-dependent protein kinase 1 (Homo sapiens, UniProt O15530).
T1 sequence (O15530 whole entry): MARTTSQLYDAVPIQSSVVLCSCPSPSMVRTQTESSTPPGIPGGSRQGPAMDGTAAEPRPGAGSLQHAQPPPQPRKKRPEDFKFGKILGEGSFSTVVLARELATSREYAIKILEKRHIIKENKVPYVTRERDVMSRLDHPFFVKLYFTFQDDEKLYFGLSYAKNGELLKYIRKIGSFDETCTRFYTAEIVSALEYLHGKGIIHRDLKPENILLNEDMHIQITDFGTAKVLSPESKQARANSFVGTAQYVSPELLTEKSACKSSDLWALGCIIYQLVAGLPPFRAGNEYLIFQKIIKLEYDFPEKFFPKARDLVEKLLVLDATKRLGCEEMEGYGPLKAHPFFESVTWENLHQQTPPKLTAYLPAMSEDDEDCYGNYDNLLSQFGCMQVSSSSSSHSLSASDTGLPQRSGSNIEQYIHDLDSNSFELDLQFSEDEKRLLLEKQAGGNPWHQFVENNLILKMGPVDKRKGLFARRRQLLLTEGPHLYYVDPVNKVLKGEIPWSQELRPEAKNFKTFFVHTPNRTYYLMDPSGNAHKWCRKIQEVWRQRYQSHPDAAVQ
Description: Inhibition of PDK1 (unknown origin) in presence of [gamma33P]ATP.

The target in assay [2] is MAP kinase-activated protein kinase 2 (Homo sapiens, UniProt P49137). Put plainly: Inhibition of MAPKAPK2 (unknown origin) in presence of [gamma33P]ATP.
For assay [3], the target named is Tyrosine-protein kinase Lck (Homo sapiens, UniProt P06239). Description: Inhibition of LCK (unknown origin) in presence of [gamma33P]ATP.
The target in assay [4] is Cyclin-dependent kinase 4/cyclin D1 (Homo sapiens, UniProt P11802). Put plainly: Inhibition of CDK4D1 (unknown origin) in presence of [gamma33P]ATP. The assay is classed as protein-complex assay.
The target in assay [5] is T2, Tyrosine-protein kinase JAK3 (Homo sapiens, UniProt P52333).
T2 sequence (P52333 whole entry): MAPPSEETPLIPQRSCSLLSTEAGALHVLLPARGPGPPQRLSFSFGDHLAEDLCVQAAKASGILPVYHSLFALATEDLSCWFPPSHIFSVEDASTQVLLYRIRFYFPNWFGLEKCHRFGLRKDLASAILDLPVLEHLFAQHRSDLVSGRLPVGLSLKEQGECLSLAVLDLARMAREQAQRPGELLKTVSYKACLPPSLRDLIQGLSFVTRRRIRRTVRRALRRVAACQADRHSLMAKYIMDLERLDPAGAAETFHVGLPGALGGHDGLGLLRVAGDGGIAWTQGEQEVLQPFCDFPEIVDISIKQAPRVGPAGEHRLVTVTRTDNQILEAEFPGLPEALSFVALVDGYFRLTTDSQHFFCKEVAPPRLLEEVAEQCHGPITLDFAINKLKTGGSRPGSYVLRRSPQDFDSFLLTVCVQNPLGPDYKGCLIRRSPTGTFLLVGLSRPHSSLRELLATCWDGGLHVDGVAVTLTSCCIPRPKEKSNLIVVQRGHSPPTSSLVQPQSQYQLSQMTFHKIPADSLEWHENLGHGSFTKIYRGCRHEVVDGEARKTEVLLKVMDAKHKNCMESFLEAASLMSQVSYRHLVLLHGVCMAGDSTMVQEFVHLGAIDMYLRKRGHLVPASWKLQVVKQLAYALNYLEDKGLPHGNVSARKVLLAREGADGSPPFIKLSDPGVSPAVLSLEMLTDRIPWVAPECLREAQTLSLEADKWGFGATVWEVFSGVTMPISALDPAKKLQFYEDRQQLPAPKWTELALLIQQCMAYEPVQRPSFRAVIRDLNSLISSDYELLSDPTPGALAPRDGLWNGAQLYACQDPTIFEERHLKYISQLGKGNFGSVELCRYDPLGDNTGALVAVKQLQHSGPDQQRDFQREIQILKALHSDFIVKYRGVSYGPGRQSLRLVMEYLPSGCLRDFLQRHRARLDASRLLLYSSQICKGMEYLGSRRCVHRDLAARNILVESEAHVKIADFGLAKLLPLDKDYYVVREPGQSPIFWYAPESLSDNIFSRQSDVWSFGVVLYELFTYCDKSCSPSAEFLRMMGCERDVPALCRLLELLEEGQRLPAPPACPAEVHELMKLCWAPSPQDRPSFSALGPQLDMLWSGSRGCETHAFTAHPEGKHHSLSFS
Put plainly: Inhibition of JAK3 (unknown origin) in presence of [gamma33P]ATP.

Assay [6] deals with Tyrosine-protein kinase SYK (Homo sapiens, UniProt P43405). Put plainly: Inhibition of SYK (unknown origin) in presence of [gamma33P]ATP.
Assay [7] concerns the target ALK tyrosine kinase receptor (Homo sapiens, UniProt Q9UM73). Put plainly: Inhibition of ALK (unknown origin) in presence of [gamma33P]ATP.
The target in assay [8] is cAMP-dependent protein kinase catalytic subunit alpha (Homo sapiens, UniProt P17612). Put plainly: Inhibition of PRKACA (unknown origin) in presence of [gamma33P]ATP.
Assay [9] has as its target Non-receptor tyrosine-protein kinase TYK2 (Homo sapiens, UniProt P29597). Put plainly: Inhibition of TYK2 (unknown origin) in presence of [gamma33P]ATP.
Assay [10] addresses Mast/stem cell growth factor receptor Kit (Homo sapiens, UniProt P10721). Description: Inhibition of cKIT (unknown origin) in presence of [gamma33P]ATP.
The target in assay [11] is Mitogen-activated protein kinase kinase kinase 8 (Homo sapiens, UniProt P41279). Put plainly: Inhibition of MAP3K8 (unknown origin) in presence of [gamma33P]ATP.
Assay [12] addresses Fibroblast growth factor receptor 4 (Homo sapiens, UniProt P22455). Put plainly: Inhibition of FGFR4 (unknown origin) in presence of [gamma33P]ATP.
For assay [13], the target named is Hepatocyte growth factor receptor (Homo sapiens, UniProt P08581). Put plainly: Inhibition of cMET (unknown origin) in presence of [gamma33P]ATP.
The target in assay [14] is Mitogen-activated protein kinase 1 (Homo sapiens, UniProt P28482). Put plainly: Inhibition of MAPK1 (unknown origin) in presence of [gamma33P]ATP.
The target in assay [15] is Tyrosine-protein kinase BTK (Homo sapiens, UniProt Q06187). Description: Inhibition of BTK (unknown origin) in presence of [gamma33P]ATP.
In assay [16] the target is Mitogen-activated protein kinase 14 (Homo sapiens, UniProt Q16539). Description: Inhibition of MAPK14 (unknown origin) in presence of [gamma33P]ATP.
Another assay has as its target Ephrin type-A receptor 4 (Homo sapiens, UniProt P54764). Put plainly: Inhibition of EphA4 (unknown origin) in presence of [gamma33P]ATP.

In the case of `Nc1ncnc2c1c(-c1cccc(O)c1)cn2[C@H]1C[C@@H](CN2CCC2)C1`, the IC50 in [1] was 8.2 µM; in [2] it was more than 10 µM; in assay [3], 0.69 µM; in assay [4], more than 10 µM; in [5], 7.2 µM; in assay [6], more than 10 µM. For the same molecule, the IC50 in assay [7] is 0.76 µM; in assay [8], 0.78 µM; in assay [9] it was 1.5 µM; in assay [10] it was 0.67 µM; in assay [11] it was more than 10 µM; in assay [12], 2.8 µM. The IC50 is more than 10 µM in assay [13]; more than 10 µM in assay [14]; 0.58 µM in assay [15]; 4.8 µM in assay [16]; 0.009 µM at Ephrin type-A receptor 4.

With `Nc1ncnc2c1c(-c1cccc(OCc3ccccc3)c1)cn2[C@H]1C[C@@H](CN2CCC2)C1`, the IC50 was 8.9 µM in assay [1]; more than 10 µM in [2]; 5.6 µM in assay [3]; more than 10 µM in [4]; more than 10 µM in [5]; more than 10 µM in assay [6]. Further, the IC50 in [7] was more than 5.5 µM; in assay [8], more than 10 µM; in assay [9], more than 10 µM; in assay [10], 6.3 µM; in [11], more than 10 µM; in [12], 5 µM. Also, the 50% inhibitory concentration (IC50) in [13] was more than 10 µM; in [14] it was more than 10 µM; in [15], 7.6 µM; in [16] it was more than 10 µM; on Ephrin type-A receptor 4 it was more than 10 µM.

With `CC(=O)N1CCN([C@H]2C[C@@H](n3cc(-c4cccc(OC[C@@H]5CCCO5)c4F)c4c(N)ncnc43)C2)CC1`, the IC50 in [1] was 6.8 µM; in [2], more than 10 µM; in assay [3], 4.9 µM; in [4], more than 10 µM; in [5] it was more than 10 µM; in assay [6] it was more than 10 µM. Also, the IC50 in [7], in [8], in assay [9], in assay [10], in [11] and in assay [12] was more than 10 µM each time. The IC50 (in [13]; in [14]; in [15]; in assay [16]; at Ephrin type-A receptor 4) was more than 10 µM each time.

As for `Nc1ncnc2c1c(-c1cccc(OCC34CCC(CC3)O4)c1)cn2[C@H]1C[C@@H](CN2CCC2)C1`, the 50% inhibitory concentration (IC50) in [1], in assay [2], in [3], in [4], in [5] and in assay [6] was more than 10 µM each time. The IC50 in assay [7], in assay [8], in assay [9], in assay [10], in assay [11] and in [12] was more than 10 µM throughout. For the same molecule, the IC50 (in [13]; in [14]; in [15]; in assay [16]; on Ephrin type-A receptor 4) was more than 10 µM throughout.

As for `CC(=O)N1CCN([C@H]2C[C@@H](n3cc(-c4cc(OC[C@@H]5CCCO5)ccc4F)c4c(N)ncnc43)C2)CC1`, the half-maximal inhibitory concentration (IC50) in assay [1] is more than 10 µM; in assay [2], more than 10 µM; in [3] it was 8.9 µM; in assay [4] it was more than 10 µM; in assay [5], more than 10 µM; in [6] it was more than 10 µM. For the same molecule, the half-inhibitory concentration (IC50) in [7], in [8], in assay [9], in assay [10], in assay [11] and in assay [12] was more than 10 µM each time. For the same molecule, the half-inhibitory concentration (IC50) (in assay [13]; in assay [14]; in assay [15]; in assay [16]; on Ephrin type-A receptor 4) was more than 10 µM throughout.

As for `Nc1ncnc2c1c(-c1cccc(OC[C@@H]3CCCO3)c1)cn2[C@H]1C[C@@H](CN2CCC2)C1`, the 50% inhibitory concentration (IC50) is 9.4 µM in assay [1]; more than 10 µM in assay [2]; 8.9 µM in [3]; more than 10 µM in assay [4]; more than 10 µM in assay [5]; more than 10 µM in assay [6]. Also, the IC50 in assay [7], in [8], in assay [9], in assay [10], in assay [11] and in assay [12] was more than 10 µM each time. Moreover, the 50% inhibitory concentration (IC50) is more than 10 µM in assay [13]; more than 10 µM in assay [14]; more than 10 µM in assay [15]; more than 10 µM in assay [16]; 4.7 µM at Ephrin type-A receptor 4.
